Data taken from patent EP2173323B1, “STIMULATING GEL” (LRC Products Limited, priority 2007, dated 2009).

What was measured:
[1] = Cooling strength of coolants relative to menthol; details: menthol = 100
[2] = Penetration of coolants across body surfaces
Source text: By "penetration enhancer" we mean any compound which aids penetration or absorption of coolants (or other active ingredients) into and through body surfaces, for example, compounds which aid penetration of coolants into and through the skin and mucosal membranes. Preferably, penetration enhancers as used herein aid penetration and/or absorption of coolants which are cyclic carboxamides, such as N-cthyl-p-menthane-3-carboxamide, and/or aid penetration and/or absorption of (-)-isopulegol across body surfaces. Such penetration enhancement may potentiate the action of coolants, or other active ingredients. Any suitable penetration enhancer may be used. Preferred penetration enhancers include ethoxy diglycol, limonene, isopropyl palmitate, sodium lauryl sulphate and L-arginine. Optionally, the penetration enhancer may also act as a vasodilator.
Optionally, the compositions further comprise a penetration enhancer. The penetration enhancer can be any compound which aids penetration or absorption of the cyclic carboxamide and/or of isopulegol into and through body surfaces, for example, compounds which aid penetration into and through the skin and mucosal membranes. Any suitable penetration enhancer may be used. Preferred penetration enhancers include ethoxy diglycol, limonene; isopropyl palmitate; and sodium lauryl sulphate. […]

[3] = Volatility compared with menthol; type: physicochemical
[4] = Crystallisation / clouding at low temperatures; type: physicochemical

Row | SMILES | Cooling strength relative to menthol [1] | also measured
1 | C=C(C)C1CCC(C)CC1O (stereo not drawn) [Isopulegol, 2-isopropenyl-5-methyl-cyclohexanol] | 25 | –
2 | N=C(N)NCCC[C@H](N)C(=O)O [L-arginine] | – | penetration enhancement of coolants (cyclic carboxamides and isopulegol) [2]: aids penetration of coolants
3 | CC1CCC(C(C)C)C(O)C1 (stereo not drawn) [Menthol] | 100 | –
4 | CC1CCC(C(C)C)C2(C1)OCC(CO)O2 (stereo not drawn) [Menthone glycerine acetal] | 41 | –
5 | CC1CCC(C(C)C)C(OC(=O)C(C)O)C1 (stereo not drawn) [Menthyl lactate] | 43 | –
6 | CCNC(=O)C1CC(C)CCC1C(C)C (stereo not drawn) [WS-3, N-ethyl-p-menthane-3-carboxamide] | 150 | volatility [3]: lower volatility than menthol; crystallisation at low temperatures [4]: does not crystallise at low temperatures
7 | CNC(=O)C(C)(C(C)C)C(C)C [WS-23] | 75 | –
